The values below come from ChEMBL document CHEMBL2439978, “Perindopril and ramipril phosphonate analogues as a new class of angiotensin converting enzyme inhibitors” (Bioorg Med Chem, 2013).

SMILES strings stand for the structures.

In assay [1] the target is T1, Angiotensin-converting enzyme (Homo sapiens, UniProt P12821). In words: Inhibition of ACE (unknown origin).
The target of assay [2] is T1, Angiotensin-converting enzyme. In words: Inhibition of recombinant human ACE using (7-methoxycoumarin-4-yl)acetyl-Arg-Pro-Pro-Gly-Phe-Ser-Ala-Phe-Lys(2,4-dinitrophenyle)-OH as substrate after 30 mins by fluorescence assay.

T1 sequence (P12821 whole entry): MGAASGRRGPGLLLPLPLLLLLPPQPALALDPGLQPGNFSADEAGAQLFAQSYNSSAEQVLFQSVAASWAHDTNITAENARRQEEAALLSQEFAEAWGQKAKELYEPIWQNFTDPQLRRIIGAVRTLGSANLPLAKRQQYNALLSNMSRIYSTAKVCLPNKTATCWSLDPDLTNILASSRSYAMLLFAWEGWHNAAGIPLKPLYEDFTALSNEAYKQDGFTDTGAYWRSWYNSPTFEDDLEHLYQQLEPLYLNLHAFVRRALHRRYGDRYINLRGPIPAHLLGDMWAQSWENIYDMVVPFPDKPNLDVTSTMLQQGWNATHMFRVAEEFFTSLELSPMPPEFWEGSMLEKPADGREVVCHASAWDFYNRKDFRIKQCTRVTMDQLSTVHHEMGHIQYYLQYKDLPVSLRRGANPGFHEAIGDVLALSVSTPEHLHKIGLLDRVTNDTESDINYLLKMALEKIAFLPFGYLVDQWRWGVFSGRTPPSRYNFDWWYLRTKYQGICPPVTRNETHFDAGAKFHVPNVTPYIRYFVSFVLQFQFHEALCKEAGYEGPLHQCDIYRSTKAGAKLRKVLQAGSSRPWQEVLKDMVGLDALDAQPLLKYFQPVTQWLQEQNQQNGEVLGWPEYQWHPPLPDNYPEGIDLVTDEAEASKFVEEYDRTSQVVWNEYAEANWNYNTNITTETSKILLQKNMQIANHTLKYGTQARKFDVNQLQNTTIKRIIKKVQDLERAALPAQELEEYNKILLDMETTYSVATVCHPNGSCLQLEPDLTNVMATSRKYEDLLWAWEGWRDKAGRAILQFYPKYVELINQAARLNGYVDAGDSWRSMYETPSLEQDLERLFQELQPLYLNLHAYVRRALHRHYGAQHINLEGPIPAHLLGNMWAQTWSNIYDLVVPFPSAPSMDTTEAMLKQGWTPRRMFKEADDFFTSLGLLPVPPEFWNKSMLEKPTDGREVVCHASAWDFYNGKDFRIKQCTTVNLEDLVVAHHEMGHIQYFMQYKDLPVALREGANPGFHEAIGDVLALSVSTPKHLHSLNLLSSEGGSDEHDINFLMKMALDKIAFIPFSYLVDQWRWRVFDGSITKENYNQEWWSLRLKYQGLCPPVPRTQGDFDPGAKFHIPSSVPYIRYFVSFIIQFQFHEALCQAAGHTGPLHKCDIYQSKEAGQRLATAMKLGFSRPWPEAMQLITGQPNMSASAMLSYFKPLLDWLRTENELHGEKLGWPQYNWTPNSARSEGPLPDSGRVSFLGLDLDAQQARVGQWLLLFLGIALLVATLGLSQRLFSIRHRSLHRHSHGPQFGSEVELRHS

One may read the IC50 as the concentration needed to halve the response being measured. As for `CCC[C@H](N[C@@H](C)C(=O)N1[C@H](C(=O)O)C[C@@H]2CCCC[C@@H]21)C(=O)OCC` [PERINDOPRIL], in assay [1], the IC50 turned out to be 1.5 nM.

Take `CCCC(N[C@@H](C)C(=O)N1[C@H](C(=O)O)C[C@@H]2CCCC[C@@H]21)P(=O)(O)O` (stereo partly drawn): in assay [2], the half-inhibitory concentration (IC50) was 30 nM. Still for that read-out and setting: under `C[C@H](NC(CCc1ccccc1)P(=O)(O)O)C(=O)N1[C@H](C(=O)O)C[C@@H]2CCCC[C@@H]21` (stereo partly drawn) stands 40 nM.
